Several values for one entry are separate records, joined by “and”; a condition that tells them apart may be missing. Identical values can stand only once.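 Compound exposure: 48 hours, 5 concentrations, 96-well plates. Abbreviation: GI50, concentration required for 50% inhibition of growth. At the TGI there is no net growth.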 *1 amine or outer side, *2 acyl side, *3 side chain or, on linkers, in order; H or OH if unused. Where a SMILES comes first, the peptide text is derived from it. Bridges are numbered along the chain shown (N, C = ends). Roman numbers before positions name the chains, in order. [ ]: non-standard residue; d: D form. Actinocin(1to9) = Cc1c2oc3c(C)ccc(C(=O)[*:2])c3nc-2c(C(=O)[*:1])c(N)c1=O; NMeV = CN[CH](C(=O)O)C(C)C; Sar = CNCC(=O)O
Key:
Experiment in all cases: DTP human tumour cell line panel, 48 h
[1] = system: ACHN renal
[2] = system: BT-549 breast
[3] = system: COLO 205 colon
[4] = system: HCT-116 colon
[5] = system: HOP-62 NSCLC
[6] = system: M14 melanoma
[7] = system: MDA-MB-435
[8] = system: NCI-H226 lung
[9] = system: NCI-H522 lung
[10] = system: OVCAR-4 ovarian
[11] = system: SF-539 CNS
[12] = system: SK-OV-3 ovarian
[13] = system: SN12C renal
[14] = system: SW-620 colon
[15] = system: TK-10 renal
[16] = system: UACC-62 melanoma
[17] = system: LOX IMVI melanoma
[18] = system: OVCAR-8 ovarian

| Compound | TGI [1] | TGI [2] [µM] | TGI [3] [µM] | TGI [4] [µM] | TGI [5] | TGI [6] [µM] | TGI [7] [µM] | TGI [8] | TGI [9] | TGI [10] | TGI [11] [µM] | TGI [12] [µM] | TGI [13] [µM] | TGI [14] [µM] | TGI [15] [µM] | TGI [16] | TGI [17] [µM] | TGI [18] [µM] | GI50 [8] [µM] | GI50 [10] [µM] |
| --- | --- | --- | --- | --- | --- | --- | --- | --- | --- | --- | --- | --- | --- | --- | --- | --- | --- | --- | --- | --- |
| COc1cc2c(SCCN(C)C)nc3ccccc3c2c2ccccc12 | 3.64 µM | 21.7 | 3.75 | 2.83 | 2.81 µM | 3.46 | 3.3 | 8.12 µM | 2.79 µM | 9.22 µM | 3.61 | 25.6 | 6.41 | 3.64 | 7.23 | 3.12 µM |  |  |  |  |
| CC(NC1=NCCO1)c1ccsc1 (centres undefined) | > 100 µM | > 100 | 35.3 | 34.1 |  | 35.4 | 43.1 | > 100 µM | 35 µM | > 100 µM | 38.2 | > 100 |  | 43.9 | > 100 | 34.3 µM | 35 | 77.7 |  |  |
| COc1ccc(C[C@@H]2OC3(C=CC(=O)CC3Sc3ccccc3)O[C@H]2Cc2ccc(OC)cc2)cc1 (some centres undefined) | 2.81 µM | 1.49 | 3.36 |  | 2.5 µM | 2.75 | 3.98 | 3.33 µM |  | 3.7 µM | 3 | 7.84 | 5.22 | 0.946 | 3.88 | 5.12 µM | 1.72 | 0.966 |  |  |
| CN(C)CCNc1ncnc2nc(-c3ccccc3)c(-c3ccccc3)nc12 |  | > 100 | > 100 | > 100 | > 100 µM | > 100 | > 100 | > 100 µM | > 100 µM |  | > 100 | > 100 | > 100 | > 100 | > 100 | > 100 µM | > 100 | > 100 |  |  |
| COc1ccc(CC2NC(=O)C(NC(=O)c3c4nc5c(C(=O)NC6C(=O)NC(Cc7ccc(OC)cc7)C(=O)N7CCCC7C(=O)N(C)CC(=O)N(C)C(C(C)C)C(=O)OC6C)ccc(C)c5oc-4c(C)c(=O)c3N)C(C)OC(=O)C(C(C)C)N(C)C(=O)CN(C)C(=O)C3CCCN3C2=O)cc1 (centres undefined) (I: TY(Me)P[Sar][NMeV] / II: TY(Me)P[Sar][NMeV]; ester I:1-I:C, II:1-II:C; linker I:N-II:N via Actinocin(1to9); configuration not given here) | 1.66 µM and 1.55 µM | 0.0254 | 0.0172 |  | 0.0405 µM and 0.236 µM | 0.135 | 0.0265 | 0.0228 µM and 0.0527 µM | 0.0234 µM and 0.0235 µM | 0.49 µM and 0.224 µM | 0.0257 | 12.6 |  |  |  | 0.00628 µM and 0.0307 µM | 0.0144 |  | < 0.001 | 0.0138 |
| CCc1n[nH]c(=O)n1-n1c(C)ccc1C | > 100 µM | > 100 | > 100 | > 100 | > 100 µM | > 100 | > 100 | > 100 µM | > 100 µM | > 100 µM |  | > 100 | > 100 | > 100 | > 100 | > 100 µM | > 100 | > 100 |  |  |
| CC(=O)O[C@H]1[C@@H](OC2CCCC2(c2ccccc2)c2ccccc2)O[N+]([O-])=C[C@@H]1c1ccccc1 (some centres undefined) | 12.5 µM | 17.5 | > 46 | 10.5 | 38.2 µM | 18.5 | 11.3 | 80.2 µM | 2.62 µM | 21.4 µM |  | 29 | 16.9 | 17.6 | 23.2 | 15.7 µM | 5.04 | 6.53 |  |  |
| CCc1cccc(C(C)C)c1NC(=O)C(=O)Nn1c(=S)[nH]c2ccccc2c1=O | > 100 µM | > 100 |  | > 100 | > 100 µM | > 100 | > 100 | > 100 µM | > 100 µM | > 100 µM | > 100 | > 100 | > 100 | > 100 | > 100 | > 100 µM | > 100 | > 100 |  |  |
| COc1ccc(/C=N/NS(=O)(=O)c2ccc(/C=C3\NC(=O)NC3=O)cc2)cc1 | > 100 µM | > 100 | > 100 | > 100 | > 100 µM | > 100 | > 100 | > 100 µM |  | > 100 µM |  | > 100 | > 100 | > 100 | > 100 | > 100 µM | > 100 | > 100 |  |  |
| C#CCNCC(=O)O | > 100 µM | > 100 | > 100 | > 100 | > 100 µM | > 100 | > 100 | > 100 µM | > 100 µM | > 100 µM | > 100 | > 100 |  | > 100 | > 100 | > 100 µM |  | > 100 |  |  |
| c1ccc(C2(c3cc4ccccc4[nH]3)OCCO2)nc1 | > 100 µM | > 100 | > 100 | > 100 | > 100 µM | > 100 | > 100 | > 100 µM |  | > 100 µM | > 100 | > 100 |  | > 100 | > 100 | > 100 µM | > 100 | > 100 |  |  |
| Cc1ccc(N=NC(=O)NNc2ccc(C)cc2Br)c(Br)c1 | 89.1 µM | 89.3 |  | 24.6 | 41.1 µM | 72 | > 100 | 62.8 µM | 55.3 µM | > 100 µM |  |  | 51.2 | > 100 | 86.6 | 36.1 µM | 34.5 | 62 |  |  |
| Cc1c(CN2CCOCC2)c(CN2CCOCC2)c(C)n1-c1ccc(Cl)cn1 | > 100 µM | > 100 | > 100 | > 100 | > 100 µM | > 100 | > 100 | > 100 µM | > 100 µM | > 100 µM |  | > 100 | > 100 | > 100 | > 100 | > 100 µM |  | > 100 |  |  |
